Key:
[1] = test system: human articular chondrocytes; assay: Proteoglycan synthesis by human articular chondrocytes (35S-sulfate incorporation); assay type: cell-based; settings: PTH(1-34) 10^−8 mol/L, cultured for 13 days
Method: After purchase of cryopreserved human articular chondrocytes (Lot 2867, Cell Applications Inc.), the cells were thawed in a 37° C. water bath, 15 mL of Basal Medium supplemented with 10% Growth Supplement (Growth Medium, Cell Applications Inc.) was placed in a T75 culture flask (CORNING, Corning Japan K. K.) to culture the cells, and exchanged the next day with 15 mL of Growth Medium; and the cells were cultured for three days. Growth Medium was then removed, and HBSS (Cell Applications Inc.) was used to wash the chondrocyte layer. With addition of 1 mL of trypsin/EDTA solution (Cell Applications Inc.), this was left to stand at room temperature for approximately five minutes, and chondrocytes were detached from the flask. With 10 mL of Neutralization solution (Cell Applications Inc.) added, Bulker-Turk hemocytometer was used to determine the cell count, and the cells were then transferred to a 15-mL test tube for centrifugation (1,200 rpm for five minutes, Tomy Seiko Co., Ltd.) to produce a chondrocyte pellet. The supernatant was discarded, and the cells were placed in a 1.2% sodium alginate solution (25 mmol/L HEPES/150 mmol/L sodium chloride solution, pH7.0) at 2×10^6 cells/mL. This was drawn into a 1-mL syringe (Terumo Corporation) equipped with a 22G injection needle, five drops were added to each well of a 24-well plate (Corning Japan K.K.) containing 2 mL of 102 mmol/L aqueous CaCl2 solution, and this was left to stand for five minutes to form beads. Subsequently, this was washed three times with a 150 mmol/L sodium chloride solution and incubated for one day in Growth Medium, and the medium was exchanged with Basal Medium supplemented with 1% Growth supplement (Cell Applications Inc.). In this procedure, the following factors were added to the medium, and the cells were cultured for 13 days with three times of medium exchange performed per week.
On day 12 of culturing, ^35S-labeled sulfuric acid (PerkinElmer Japan Co., Ltd.) was added at 370 kBq/well, and the medium was collected 24 hours later into a test tube and stored at 4° C. To the alginate gel, a 55 mmol/L sodium citrate solution (Nacalai Tesque, Inc.; 1 mL/well) was added, and this was incubated at 37° C. for ten minutes for solation. This was collected into a microtube (Eppendorf AG) and then centrifuged (1,200 rpm, five minutes) to produce a chondrocyte pellet. […] The glass filter was transferred to a liquid scintillation counter vial, 5 mL of scintillator (Hionic-Fluor, PerkinElmer Japan Co., Ltd.) was added and radioactivity was measured on a liquid scintillation counter (TRI-CARB, PerkinElmer Japan Co., Ltd.).
The remaining 0.1 mL of the digested solution was used for DNA quantification. […]

ovariectomized rats = assay: Bone mineral density after six weeks of repeated administration to ovariectomized rats; assay type: in vivo, rat; settings: once a day for six weeks, hPTH(1-34) 0.9 nmol/kg subcutaneous
Method: Female Crl:CD(SD) rats obtained from Charles River Japan, Inc. were acclimated for one week or longer under standard laboratory conditions of 20° C. to 26° C. and 35% to 75% humidity, and then used in experiments. The rats had free access to tap water and a standard rodent diet (CE-2) (Clea Japan Inc.) containing 1.1% calcium, 1.0% phosphoric acid, and 250 IU/100 g vitamin D3.
Twelve-week old rats were subjected to removal of both ovaries by surgery (OVX) or to sham surgery (Sham). After the body weight was determined in the fourth week after surgery, the rats were divided into groups so that the average body weight of each group of six rats would be even. From the subsequent day after group division, each rat was subjected to repeated administration once a day for six weeks. The solvent for oral administration (vehicle) and the solvent for subcutaneous administration (PC buffer) were respectively administered orally and subcutaneously to rats of the Sham-Control group. Vehicle and PC buffer were orally and subcutaneously administered to rats of the OVX-Control group, respectively. To rats of OVX-Compound 7, the above-mentioned Compound 7 dissolved in the vehicle was orally administered at a dose of 30 mg/kg, and PC buffer was administered subcutaneously. To rats of the OVX-hPTH(1-34) group, the vehicle was orally administered, and hPTH(1-34) dissolved in PC buffer was subcutaneously administered at a dose of 0.9 nmol/kg.
The level of AUC (area under the curve for blood concentration vs. time) was the same as when 20 μg of Forteo®, a therapeutic agent clinically used for osteoporosis, is administered to humans when the administration dose for rats was set to 0.9 nmol/kg. The administration doses were 5 mL/kg for oral administration and 1 mL/kg for subcutaneous administration in all groups. The vehicle used was a composition prepared from 10% dimethyl sulfoxide (Wako Pure Chemical Industries, Ltd.), 10% Kolliphor EL (Sigma-Aldrich Japan), and 10% hydroxypropyl-β-cyclodextrin (Nihon Shokuhin Kako Co., Ltd), whose pH was adjusted to 10 using glycine (Wako Pure Chemical Industries, Ltd.) and sodium hydroxide (Wako Pure Chemical Industries, Ltd.). The PC buffer used was a composition prepared from 25 mmol/L phosphate-citrate buffer, 100 mmol/L NaCl, and 0.05% Tween80, adjusted to pH 5.0. […] The bone mineral densities of the lumbar spine and femur were determined using a dual X-ray bone mineral scanner (DCS-600EX, Aloka). The lumbar spine bone mineral density was determined by measuring the second to fourth lumbar vertebrae; and the femur bone mineral density was determined by vertically dividing the femur into ten parts, and measuring the three parts at the distal end of the knees. […]

[2] = test system: rabbit articular chondrocytes; assay: Suppression of terminal differentiation of rabbit articular chondrocytes (alkaline phosphatase and alizarin red staining); assay type: cell-based; settings: BMP-2 100 ng/mL, Compound 7 10^−7 to 10^−5 mol/L, PTH(1-34) 10^−10 to 10^−7 mol/L
Method: NZW rabbits (4-week old, Oriental Yeast Co., Ltd.) were euthanized, and then the articular cartilage of the lower leg bone was collected, and transferred to a 50-mL test tube (Nippon Becton Dickinson Company). PBS (Nacalai Tesque, Inc.) containing 1% trypsin (Wako Pure Chemical Industries, Ltd.) was added to this, and the soft tissue was digested at 37° C. for one hour. This was followed by centrifugation at 1,200 rpm for five minutes, then supernatant was removed and PBS(−) was added to suspend the cartilage tissue. This was centrifuged at 1,200 rpm for five minutes, followed by removal of the supernatant, and washed three times by suspending in PBS(−). This was centrifuged at 1,200 rpm for five minutes, and then the cell pellet was digested by treatment with DMEM (Life Technologies Japan, Ltd.) containing 0.2% Type II collagenase (CLS-2, Worthington Biochemical Corp.) at 37° C. for three hours. Fetal bovine serum (Life Technologies Japan, Ltd.) was added at 10% v/v to stop the reaction, and this was vigorously pipetted using a 10-mL pipette (Nippon Becton Dickinson Company) to isolate the chondrocytes. This was centrifuged at 1,200 rpm for five minutes, followed by removal of the supernatant, and washed three times by suspending in 10% FCS-containing DMEM, and the chondrocytes were seeded at 1×10^4 cells/well on an I-type collagen-coated 96-well culture plate (AGC TECHNO GLASS CO., LTD.). Medium exchange was performed three times a week; and after the cells reached confluency, they were cultured in DMEM containing 100 μg/mL L-ascorbic acid phosphate magnesium salt n-hydrate (Wako Pure Chemical Industries, Ltd.), 10 mmol/L β-glycerophosphate pentahydrate (Wako Pure Chemical Industries, Ltd.) and 10% FCS. The following conditions were used to culture the cells, and alkaline phosphatase staining (cultured for 14 days) and alizarin red staining (cultured for 21 days) were performed to evaluate terminal differentiation of chondrocytes.
Alkaline phosphatase staining was performed by discarding the medium, then washing the chondrocytes once with 200 mmol/L Tris-HCl pH8.2 buffer, staining the cells according to the protocol supplied with the alkaline phosphatase staining kit (Vector Red Alkaline Phosphatase Substrate Kit I, Vector Laboratories, Inc.), and taking photographs with an inverted microscope (Nikon Corporation) (4× objective).
Alizarin red staining was performed by discarding the medium, then washing the chondrocytes twice with PBS, fixing the cells using 100% ethanol (Wako Pure Chemical Industries Ltd.) for 15 minutes, discarding the ethanol, and then staining with 1% alizarin red S (Wako Pure Chemical Industries Ltd.) for 15 minutes, followed by washing with distilled water; and photographs were taken with an inverted microscope.

hPTH(1-34): Human PTH(1-34) peptide purchased from Peptide Institute, Inc.; positive control [reference compound]
radioactivity (proteoglycan synthesis, cpm/μg DNA) relative to the vehicle control [1]: 6 fold
percentage of increase in femur bone mineral density with respect to the OVX-Control group (ovariectomized rats; Compound 7 30 mg/kg oral): 8%
percentage of increase in lumbar spine bone mineral density with respect to the OVX-Control group (ovariectomized rats): 12%
alkaline phosphatase activity (alkaline phosphatase staining) ([2]; cultured for 14 days): suppressed alkaline phosphatase activity in a concentration-dependent manner
alizarin red staining property (calcification) ([2]; cultured for 21 days): suppressed the alizarin staining property in a concentration-dependent manner

From patent US9993462B2, “Hydantoin derivative-containing pharmaceutical composition” (Chugai Seiyaku Kabushiki Kaisha, priority 2014, dated 2018)
